Data on 8 compounds can be found in patent publication US6716872B2, “Substituted pyrrolidine-2,3,4-trione 3-oxime derivatives which are active as NMDA receptor antagonists” (Gruenenthal GmbH, priority 1999, dated 2004).

SMILES strings stand for the structures. pKi: −log10 of the molar value.

The target in series [1] is T1, glycine binding site of the NMDA receptor channel (Rattus norvegicus, UniProt P35439).
T1 construct: from tissue; host or cells: rat brain cortex and hippocampus membrane homogenate (male Wistar rats, Charles River)
Description: Receptor binding test, displacement of (3H)-MDL 105.519 on rat cerebral membrane homogenates. The settings on record: rat cortex and hippocampus membranes, 1 nmol/l (3H)-MDL 105.519; Ki from IC50 by Cheng-Prusoff. The procedure:
Studies for determination of the affinity of the substituted pyrrolidine-2,3,4-trione 3-oxime derivatives of the general formula I according to the invention for the glycine binding site of the NMDA receptor channel were carried out on cerebral membrane homogenates (homogenate of the cortex and hippocampus area from the brain of male rats, Wistar strain, Charles River, WIGA GmbH, Sulzbach, Germany) by the method of Baron B. M. et al, J. Pharmacol. Exp. Ther., vol. 279, pp.62-68 (1996). […]
In the binding test, 50 mmol/l TRIS-acetate buffer pH 7.0 was employed as the buffer and 1 nmol/l (^3H)-MDL 105.519 (Baron B. M. et al, J. Pharmacol. Exp. Ther., vol. 279, pp. 62-68 (1996)) was employed as the radioactive ligand. The proportion of non-specific binding was determined in the presence of 1 mmol/l glycine.
In further batches, the compounds according to the invention were added in concentration series and the displacement of the radioactive ligand from its specific binding to the glycine binding site of the NMDA receptor channel was determined. […]

For series [2], the system named is male albino mice (NMRI). Description: Formalin test in mice, second (late) phase. The series is classed as in vivo. The note with it: second (late) phase of formalin test.
Description: The studies for determination of the antinociceptive action of the compounds according to the invention were carried out in the formalin test in male albino mice (NMRI, 25-35 g, Iffa Credo, Belgium).
The compounds according to the invention were investigated in the second phase of the formalin test to obtain information on the actions of the compounds according to the invention on chronic/inflammatory pain.
By a single subcutaneous formalin injection (20 μl, 1% aqueous solution) into the dorsal side of the right hind paw of freely mobile test animals, a nociceptive reaction was induced, which manifests itself in significant licking and biting of the paw affected.
For the investigation period in the second (late) phase of the formalin test, the nociceptive behavior was recorded continuously by observing the animals. […] After injection of substances which have an antinociceptive action in the formalin test, the modes of behaviour described for the animals are reduced, and possibly even eliminated. […] The behaviour of the rats after administration of the substance was compared with a control group (10 mice per substance dose).
On the basis of the quantification of the pain properties, the action of the substance in the formalin test was determined as a change from the control in per cent. The ED50 calculations were made by means of regression analysis. […]
In series [3] the test system is male NMRI mice. In words: Phenylquinone-induced writhing test in the mouse. The class given is in vivo. On the procedure: The study of the analgesic activity was also carried out in the phenylquinone-induced writhing in the mouse (modified by I. C. Hendershot et al, (1959) J. Pharmacol. Exp. Ther., vol. 125, pp. 237-240). Male NMRI mice weighing 25 to 30 g (Iffa, Credo, Belgium, were used for this. Groups of 10 animals per substance dose received 0.3 ml/mouse of a 0.02% aqueous solution of phenylquinone (phenylbenzoquinone, Sigma, Deisenhofen; preparation of the solution with the addition of 5% ethanol and storage in a water bath at 45° C.) administered intraperitoneally 10 minutes after intravenous administration of the particular compound. The animals were placed individually in observation cages. The number of pain-induced stretching movements (so-called writhing reactions=straightening of the body with stretching of the hind extremities) was counted by means of a push-button counter for 5 to 20 minutes after the administration of phenylquinone. Animals which received only physiological saline solution were also run as a control. All the substances were tested in the standard dosage of 10 mg/kg of body weight of the mouse. The percentage inhibition (% inhibition) of the writhing reaction by a substance was calculated according to the following equation: [formula]
For some of the compounds according to the invention the ED50 values with the 95% confidence range of the writhing reaction were calculated by means of regression analysis (evaluation program from Martens EDV Service, Eckental) from the dose-dependent decrease in the writhing reactions compared with phenylquinone control groups investigated in parallel.
The study of the analgesic activity was carried out in the phenylquinone-induced writhing in mice as described above.

For orientation: melting point means the temperature of the solid-liquid transition. In turn, `COC(=C1NC(=O)C(=NO)C1=O)c1ccccc1` [Example 1, 5-(Methoxyphenylmethylene)-pyrrolidine-2,3,4-trione 3-oxime] registered a melting point of 174 °C.

As usually defined, the pKi is −log10 of the Ki, conventionally taken in molar units. On to `O=C1NC(=C(Br)c2ccccc2)C(=O)C1=NO` [Example 2, 5-(Bromophenylmethylene)-pyrrolidine-2,3,4-trione 3-oxime], for which the melting point amounted to 158 °C. The pKi in series [1] was 6.37. In series [2], the “% change from the control at 10 mg/kg” value is given as 36.3%.

The compound `O=C1NC(=Cc2ccccc2Cl)C(=O)C1=NO` [Example 4, 5-(2-Chlorobenzylidene)-pyrrolidine-2,3,4-trione 3-oxime] registered a melting point of 176 °C. The “% inhibition of the writhing reaction at 10 mg/kg intravenously” value (shortened to “% inhibition of the writhing reaction”) in series [3] was found to be 55%.

For `O=C1NC(=Cc2ccc(Cl)cc2)C(=O)C1=NO` [Example 5, 5-(4-Chlorobenzylidene)-pyrrolidine-2,3,4-trione 3-oxime], the melting point came out at 190 °C. In addition, the “% inhibition of the writhing reaction” value in series [3] is on record as 50%.

In the case of `O=C1NC(=Cc2cccc(Cl)c2Cl)C(=O)C1=NO` [Example 6, 5-(2,3-Dichlorobenzylidene)-pyrrolidine-2,3,4-trione 3-oxime], the “% inhibition of the writhing reaction” value in series [3] worked out at 52%.

In turn, `O=C1NC(=Cc2ccc(Cl)cc2Cl)C(=O)C1=NO` [Example 7, 5-(2,4-Dichlorobenzylidene)-pyrrolidine-2,3,4-trione 3-oxime] had a melting point of 180 °C. Further, the “% inhibition of the writhing reaction” value in series [3] was found to be 46%.

The compound `O=C1NC(=Cc2c(Cl)cccc2Cl)C(=O)C1=NO` [Example 8, 5-(2,6-Dichlorobenzylidene)-pyrrolidine-2,3,4-trione 3-oxime] came in with a melting point of 232 °C. For the same compound, in series [3], the “% inhibition of the writhing reaction” value turned out to be 51%.

In turn, `O=C1NC(=Cc2cccc(Cl)c2)C(=O)C1=NO` [Example 9, 5-(3-Chlorobenzylidene)-pyrrolidine-2,3,4-trione 3-oxime] showed a melting point of 185 °C. For the same compound, the “% inhibition of the writhing reaction” value in series [3] was 81%.
